What was measured:
lipoamide = compound: NC(=O)CCCCC1CCSS1 [lipoamide]; experiment: thermal stability z-score vs DMSO; higher = more thermally stabilized by treatment; details: HeLa, lipoamide concentration 100 µM
Procedure: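 Cellular thermal proteome profiling in HeLa cells. Cells were treated with 100 µM lipoamide for 1 h, with or without 1 mM arsenate for a further 1 h, then heated to ten temperatures (37-66.3 °C), and soluble protein was quantified by TMT mass spectrometry relative to 0.1% DMSO controls. The thermal stability score (sum of log2 fold changes minus the abundance score) was transformed to a z-score; mean of n = 3 experiments.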

potassium arsenate = compound: O=[As]([O-])(O)O.[K+] [potassium arsenate]; experiment: as above; details: HeLa; arsenate concentration 1 mM
Procedure: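 Cellular thermal proteome profiling in HeLa cells treated with 1 mM arsenate for 1 h (DMSO pretreatment), heated to ten temperatures (37-66.3 °C). Soluble protein was quantified by TMT mass spectrometry relative to DMSO controls; the thermal stability score was transformed to a z-score; mean of n = 3 experiments.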

[1] = arsenate co-treatment: 1 mM arsenate 1 h
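Also: each temperature applied for 3 min, abundance score taken as mean log2 fold change at the two lowest temperatures, z-score obtained by mean subtraction and division by SD.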

Chain of UniProt Q5NDL2 (Q5NDL2 whole entry): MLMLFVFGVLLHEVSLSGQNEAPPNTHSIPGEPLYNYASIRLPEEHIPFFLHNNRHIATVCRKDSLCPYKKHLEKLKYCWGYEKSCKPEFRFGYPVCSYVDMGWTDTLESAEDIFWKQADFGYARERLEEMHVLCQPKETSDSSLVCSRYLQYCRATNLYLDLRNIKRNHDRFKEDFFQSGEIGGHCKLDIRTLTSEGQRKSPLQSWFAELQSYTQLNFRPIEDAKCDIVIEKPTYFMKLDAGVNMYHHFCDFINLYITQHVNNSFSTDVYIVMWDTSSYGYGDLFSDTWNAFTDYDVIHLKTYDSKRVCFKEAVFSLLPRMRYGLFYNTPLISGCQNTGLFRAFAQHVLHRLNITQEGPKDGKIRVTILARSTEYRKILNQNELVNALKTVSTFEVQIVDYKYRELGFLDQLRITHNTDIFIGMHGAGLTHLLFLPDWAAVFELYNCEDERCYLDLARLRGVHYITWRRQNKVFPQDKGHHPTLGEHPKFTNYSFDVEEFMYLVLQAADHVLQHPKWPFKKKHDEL
Chain of UniProt P50402 (P50402 whole entry): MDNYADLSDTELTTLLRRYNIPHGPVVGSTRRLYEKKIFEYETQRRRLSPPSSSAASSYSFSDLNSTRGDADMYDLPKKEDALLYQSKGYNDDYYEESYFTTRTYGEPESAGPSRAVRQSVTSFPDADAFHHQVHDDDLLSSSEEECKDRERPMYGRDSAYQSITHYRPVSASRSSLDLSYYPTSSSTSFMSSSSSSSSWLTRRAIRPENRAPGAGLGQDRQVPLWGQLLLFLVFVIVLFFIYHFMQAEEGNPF
Chain of UniProt Q9NPA8 (Q9NPA8 whole entry): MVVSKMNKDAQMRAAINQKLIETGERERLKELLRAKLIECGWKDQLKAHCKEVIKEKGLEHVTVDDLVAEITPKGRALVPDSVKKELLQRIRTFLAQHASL
Chain of UniProt Q9H9T3 (Q9H9T3 whole entry): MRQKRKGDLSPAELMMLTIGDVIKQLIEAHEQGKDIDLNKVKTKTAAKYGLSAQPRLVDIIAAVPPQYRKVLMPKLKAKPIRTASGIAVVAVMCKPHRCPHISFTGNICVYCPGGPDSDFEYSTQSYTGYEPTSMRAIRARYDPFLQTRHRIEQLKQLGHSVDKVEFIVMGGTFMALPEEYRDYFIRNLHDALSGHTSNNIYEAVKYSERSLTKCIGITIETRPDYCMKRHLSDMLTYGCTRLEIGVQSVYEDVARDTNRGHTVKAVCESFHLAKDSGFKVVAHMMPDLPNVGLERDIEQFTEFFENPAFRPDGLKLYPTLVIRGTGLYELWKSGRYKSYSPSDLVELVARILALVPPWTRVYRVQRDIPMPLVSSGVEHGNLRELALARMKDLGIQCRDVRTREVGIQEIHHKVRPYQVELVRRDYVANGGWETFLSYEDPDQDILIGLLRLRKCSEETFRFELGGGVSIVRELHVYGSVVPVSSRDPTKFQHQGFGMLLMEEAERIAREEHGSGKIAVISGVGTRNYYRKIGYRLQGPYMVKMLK
Chain of UniProt Q15006 (Q15006 whole entry): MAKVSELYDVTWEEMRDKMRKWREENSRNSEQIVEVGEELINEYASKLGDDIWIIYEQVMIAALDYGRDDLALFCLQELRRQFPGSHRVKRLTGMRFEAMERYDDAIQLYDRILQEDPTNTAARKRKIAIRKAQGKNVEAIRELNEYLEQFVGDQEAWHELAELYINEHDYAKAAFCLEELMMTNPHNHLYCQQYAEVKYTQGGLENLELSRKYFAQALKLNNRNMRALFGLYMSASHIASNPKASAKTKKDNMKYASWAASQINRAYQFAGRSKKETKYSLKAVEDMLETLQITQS
Chain of UniProt Q8NFI3 (Q8NFI3 whole entry): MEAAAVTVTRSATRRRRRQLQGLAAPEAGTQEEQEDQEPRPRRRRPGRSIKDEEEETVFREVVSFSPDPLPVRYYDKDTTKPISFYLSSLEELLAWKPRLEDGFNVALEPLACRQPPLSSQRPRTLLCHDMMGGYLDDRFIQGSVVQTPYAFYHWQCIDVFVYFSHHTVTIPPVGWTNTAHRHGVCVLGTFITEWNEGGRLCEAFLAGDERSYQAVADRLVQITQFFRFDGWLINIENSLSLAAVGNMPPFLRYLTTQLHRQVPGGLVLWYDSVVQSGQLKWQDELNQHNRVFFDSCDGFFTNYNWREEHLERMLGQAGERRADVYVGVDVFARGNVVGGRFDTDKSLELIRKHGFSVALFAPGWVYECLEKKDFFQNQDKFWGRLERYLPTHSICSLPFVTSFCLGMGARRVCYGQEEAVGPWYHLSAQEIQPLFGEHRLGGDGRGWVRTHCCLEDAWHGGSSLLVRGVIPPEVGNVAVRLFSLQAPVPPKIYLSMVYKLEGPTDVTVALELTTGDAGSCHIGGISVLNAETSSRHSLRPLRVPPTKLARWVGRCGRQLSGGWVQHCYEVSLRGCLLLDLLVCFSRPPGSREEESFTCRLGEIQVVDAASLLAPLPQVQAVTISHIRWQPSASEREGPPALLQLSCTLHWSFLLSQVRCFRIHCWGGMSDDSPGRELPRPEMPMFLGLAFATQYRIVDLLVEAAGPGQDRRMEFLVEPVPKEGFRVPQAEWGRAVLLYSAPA
Chain of UniProt Q09472 (Q09472 whole entry): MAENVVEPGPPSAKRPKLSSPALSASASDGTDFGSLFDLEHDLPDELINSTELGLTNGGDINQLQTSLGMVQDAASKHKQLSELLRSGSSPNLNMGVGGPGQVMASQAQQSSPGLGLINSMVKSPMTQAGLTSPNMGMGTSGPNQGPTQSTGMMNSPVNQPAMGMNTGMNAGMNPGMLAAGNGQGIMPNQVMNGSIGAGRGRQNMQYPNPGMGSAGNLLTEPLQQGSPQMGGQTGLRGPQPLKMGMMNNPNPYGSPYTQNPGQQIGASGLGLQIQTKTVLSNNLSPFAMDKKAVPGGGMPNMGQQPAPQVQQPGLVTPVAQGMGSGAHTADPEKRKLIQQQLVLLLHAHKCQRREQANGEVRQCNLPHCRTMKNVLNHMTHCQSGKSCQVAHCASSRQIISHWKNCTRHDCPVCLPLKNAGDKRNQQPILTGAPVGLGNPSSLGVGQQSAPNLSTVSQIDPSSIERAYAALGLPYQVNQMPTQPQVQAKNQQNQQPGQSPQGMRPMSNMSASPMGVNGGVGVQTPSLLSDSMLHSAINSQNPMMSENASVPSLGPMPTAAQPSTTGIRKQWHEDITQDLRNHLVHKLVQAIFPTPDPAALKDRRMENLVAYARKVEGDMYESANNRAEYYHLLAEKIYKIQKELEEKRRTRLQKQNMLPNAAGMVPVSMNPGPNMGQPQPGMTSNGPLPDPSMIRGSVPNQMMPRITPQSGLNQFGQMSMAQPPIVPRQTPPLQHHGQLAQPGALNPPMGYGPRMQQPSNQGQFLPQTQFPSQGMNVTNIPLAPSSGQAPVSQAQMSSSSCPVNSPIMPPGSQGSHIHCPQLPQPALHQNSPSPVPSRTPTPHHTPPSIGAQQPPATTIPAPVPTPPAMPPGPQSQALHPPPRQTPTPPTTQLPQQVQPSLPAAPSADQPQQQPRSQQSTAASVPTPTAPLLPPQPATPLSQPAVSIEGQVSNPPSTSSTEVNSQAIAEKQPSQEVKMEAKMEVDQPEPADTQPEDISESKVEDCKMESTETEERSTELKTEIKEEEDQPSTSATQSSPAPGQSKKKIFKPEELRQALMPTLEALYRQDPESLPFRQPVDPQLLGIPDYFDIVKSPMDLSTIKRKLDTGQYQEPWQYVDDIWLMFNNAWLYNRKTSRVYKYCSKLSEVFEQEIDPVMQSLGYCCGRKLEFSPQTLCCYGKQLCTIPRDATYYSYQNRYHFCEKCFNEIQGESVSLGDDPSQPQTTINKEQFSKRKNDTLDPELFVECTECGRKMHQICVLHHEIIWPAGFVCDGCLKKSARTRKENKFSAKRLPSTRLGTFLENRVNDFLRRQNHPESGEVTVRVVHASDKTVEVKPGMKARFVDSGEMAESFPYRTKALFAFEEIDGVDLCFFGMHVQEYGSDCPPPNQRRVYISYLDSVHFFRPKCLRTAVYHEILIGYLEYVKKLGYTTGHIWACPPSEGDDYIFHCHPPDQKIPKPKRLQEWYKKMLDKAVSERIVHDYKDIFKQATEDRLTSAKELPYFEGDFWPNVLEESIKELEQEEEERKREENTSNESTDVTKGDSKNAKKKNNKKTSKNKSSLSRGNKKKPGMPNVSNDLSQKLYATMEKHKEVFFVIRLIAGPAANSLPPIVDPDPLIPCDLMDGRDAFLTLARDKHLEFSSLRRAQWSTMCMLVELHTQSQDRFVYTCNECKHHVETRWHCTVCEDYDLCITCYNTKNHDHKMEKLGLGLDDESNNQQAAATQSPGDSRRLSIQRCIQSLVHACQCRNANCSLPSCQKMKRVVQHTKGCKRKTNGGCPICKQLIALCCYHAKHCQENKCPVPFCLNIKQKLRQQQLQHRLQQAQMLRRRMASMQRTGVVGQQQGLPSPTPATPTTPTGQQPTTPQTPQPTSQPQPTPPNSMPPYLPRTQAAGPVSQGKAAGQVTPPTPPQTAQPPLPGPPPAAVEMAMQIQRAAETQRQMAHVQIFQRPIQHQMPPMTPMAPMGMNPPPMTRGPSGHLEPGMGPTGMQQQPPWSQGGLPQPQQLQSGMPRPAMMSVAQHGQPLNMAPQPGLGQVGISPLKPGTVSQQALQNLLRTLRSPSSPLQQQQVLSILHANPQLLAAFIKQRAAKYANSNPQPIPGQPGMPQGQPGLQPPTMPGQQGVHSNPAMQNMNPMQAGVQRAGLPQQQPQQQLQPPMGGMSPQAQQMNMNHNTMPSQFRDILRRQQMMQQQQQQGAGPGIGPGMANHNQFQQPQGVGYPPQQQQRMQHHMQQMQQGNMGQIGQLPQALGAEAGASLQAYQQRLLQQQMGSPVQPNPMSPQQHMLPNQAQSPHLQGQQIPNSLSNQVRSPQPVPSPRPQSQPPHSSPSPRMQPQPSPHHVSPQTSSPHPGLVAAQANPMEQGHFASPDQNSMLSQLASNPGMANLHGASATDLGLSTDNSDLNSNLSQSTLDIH
Chain of UniProt O43768 (O43768 whole entry): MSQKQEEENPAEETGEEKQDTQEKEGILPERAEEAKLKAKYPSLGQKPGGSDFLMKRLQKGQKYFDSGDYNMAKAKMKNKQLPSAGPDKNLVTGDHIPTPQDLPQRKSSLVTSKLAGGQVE

Target	thermal stability z-score (lipoamide; [1])	thermal stability z-score (lipoamide; arsenate co-treatment: none)	thermal stability z-score (potassium arsenate)
ELMSAN1 (UniProt Q6PJG2)	0.273	0.0593	-0.16
ELOVL1 (UniProt Q9BW60)	-0.883	-0.778	0.652
ELOVL5 (UniProt Q9NYP7)	-0.00466	-0.551	0.0723
ELP2 (UniProt Q6IA86)	0.0198	-0.186	-0.24
ELP3 (UniProt Q9H9T3)	0.0482	0.104	-0.259
ELP4 (UniProt Q96EB1)	-0.492	0.609	0.742
ELP5 (UniProt Q8TE02)	-0.313	-0.364	0.489
ELP6 (UniProt Q0PNE2)	0.56	-0.141	0.998
EMC1 (UniProt Q8N766)	-2.01	-1.43	0.695
EMC2 (UniProt Q15006)	-0.278	-0.164	0.472
EMC3 (UniProt Q9P0I2)	-0.0707	-0.245	-0.133
EMC4 (UniProt Q5J8M3)	-0.342	0.294	0.26
EMC7 (UniProt Q9NPA0)	-0.402	-0.134	-0.101
EMC8 (UniProt O43402)	0.0729	0.209	0.348
EMC10 (UniProt Q5UCC4)	-0.0818	-0.577	0.0739
EMD (UniProt P50402)	-0.75	-0.633	-0.405
EMG1 (UniProt Q92979)	-0.357	-0.428	-0.383
EML1 (UniProt O00423)	0.345	0.15	-0.156

Target	thermal stability z-score (lipoamide; [1])	thermal stability z-score (lipoamide; arsenate co-treatment: none)	thermal stability z-score (potassium arsenate)
EML2 (UniProt O95834)	1.13	0.223	-0.718
EML3 (UniProt Q32P44)	0.0786	-0.13	-0.524
EML4 (UniProt Q9HC35)	-0.51	-0.693	1.33
ENAH (UniProt Q8N8S7)	-0.14	0.013	-0.515
ENDOD1 (UniProt O94919)	-1.14	-0.77	0.443
ENDOG (UniProt Q14249)	-1.25	-0.145	-0.245
ENG (UniProt P17813)	-0.721	-0.506	0.478
ENGASE (UniProt Q8NFI3)	0.198	0.101	-0.36
ENO1 (UniProt P06733)	0.588	0.278	-0.0281
ENO3 (UniProt P13929)	0.308	-0.4	-0.432
ENOPH1 (UniProt Q9UHY7)	0.0377	-0.118	-0.296
ENOSF1 (UniProt Q7L5Y1)	-0.0529	0.0795	-1.01
ENPEP (UniProt Q07075)	0.281	0.407	-0.0304
ENSA (UniProt O43768)	0.841	0.567	0.481
ENTHD2 (UniProt Q96N21)	-0.00439	-0.0659	-0.479
ENY2 (UniProt Q9NPA8)	0.894	0.42	0.181
EOGT (UniProt Q5NDL2)	-1.18	-0.664	0.0751
EP300 (UniProt Q09472)	-0.212	0.127	-0.866

From the supplement of paper PMC12463676, “Small-molecule dissolution of stress granules by redox modulation benefits ALS models” (Nature Chemical Biology, 2025)
